According to PubChem BioAssay (NCI):
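Method: 48-hour compound exposure of cells in 96-well plates, five concentrations, linear interpolation of endpoints. TGI denotes the concentration required for complete inhibition of growth.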

These compounds were tested on LOX IMVI melanoma (assay: NCI anticancer screen, dose series, 48 h).

Compound | TGI
CN=c1nc2sc3c(c2c(NC(=S)NC)s1)CCCC3 | > 100 µM
CC(C)C(=O)[C@@]1(C)SC[C@H]2CCN=C21 | > 100 µM
COc1cc(C(=O)n2c3ccc(Br)cc3c3nc4ccccc4nc32)cc(OC)c1OC | > 100 µM
CCOC(=O)C1=C(C)N(Cc2ccc(Cl)cc2Cl)C2(O)C=CC(=O)C3C(=O)N(c4ccccc4)C(=O)C132 (stereo unspecified) | 2.38 µM
O=c1cnn(C2OC(C(O)CO)C(O)C2O)c(=O)[nH]1 (stereo unspecified) | > 100 µM
Nc1ccc(Oc2ccc(C34CC5CC6C3CC3CC4C(C5)C6(c4ccc(Oc5ccc(N)cc5)cc4)C3)cc2)cc1 | > 76.1 µM
CNC(C#N)c1ccc(OC)cc1 (stereo unspecified) | > 100 µM
COc1ccccc1/C(=N\OCCC(=O)O)c1cccs1 | > 100 µM
CCOC(=O)c1c(-c2ccc(OC)cc2)c(C#N)c(=S)n(C2OC(COC(C)=O)C(OC(C)=O)C(OC(C)=O)C2OC(C)=O)c1-c1ccccc1 (stereo unspecified) | > 100 µM
CCN(CC)CCC(=O)/C=C/c1ccccc1 | 7.16 µM
CCCC[C@@H]1CCN2C[C@@H](O)[C@@H](O)[C@@H]2[C@H]1O | > 100 µM

The compounds below were run on SF-295 CNS (assay: NCI anticancer screen, dose series, 48 h).

Compound | TGI
CN=c1nc2sc3c(c2c(NC(=S)NC)s1)CCCC3 | > 100 µM
CC(C)C(=O)[C@@]1(C)SC[C@H]2CCN=C21 | > 100 µM
COc1cc(C(=O)n2c3ccc(Br)cc3c3nc4ccccc4nc32)cc(OC)c1OC | > 100 µM
CCOC(=O)C1=C(C)N(Cc2ccc(Cl)cc2Cl)C2(O)C=CC(=O)C3C(=O)N(c4ccccc4)C(=O)C132 (stereo unspecified) | 11.2 µM
Nc1ccc(Oc2ccc(C34CC5CC6C3CC3CC4C(C5)C6(c4ccc(Oc5ccc(N)cc5)cc4)C3)cc2)cc1 | 81.4 µM
CNC(C#N)c1ccc(OC)cc1 (stereo unspecified) | > 100 µM
COc1ccccc1/C(=N\OCCC(=O)O)c1cccs1 | > 100 µM
CCOC(=O)c1c(-c2ccc(OC)cc2)c(C#N)c(=S)n(C2OC(COC(C)=O)C(OC(C)=O)C(OC(C)=O)C2OC(C)=O)c1-c1ccccc1 (stereo unspecified) | > 100 µM
CCN(CC)CCC(=O)/C=C/c1ccccc1 | 40.1 µM
CCCC[C@@H]1CCN2C[C@@H](O)[C@@H](O)[C@@H]2[C@H]1O | > 100 µM

What follows are compounds tested on SF-268 CNS (assay: NCI anticancer screen, dose series, 48 h).

Compound | TGI
CN=c1nc2sc3c(c2c(NC(=S)NC)s1)CCCC3 | 87.5 µM
COc1cc(C(=O)n2c3ccc(Br)cc3c3nc4ccccc4nc32)cc(OC)c1OC | > 100 µM
CCOC(=O)C1=C(C)N(Cc2ccc(Cl)cc2Cl)C2(O)C=CC(=O)C3C(=O)N(c4ccccc4)C(=O)C132 (stereo unspecified) | 11.3 µM
O=c1cnn(C2OC(C(O)CO)C(O)C2O)c(=O)[nH]1 (stereo unspecified) | > 100 µM
Nc1ccc(Oc2ccc(C34CC5CC6C3CC3CC4C(C5)C6(c4ccc(Oc5ccc(N)cc5)cc4)C3)cc2)cc1 | > 72 µM
CNC(C#N)c1ccc(OC)cc1 (stereo unspecified) | > 100 µM
COc1ccccc1/C(=N\OCCC(=O)O)c1cccs1 | > 100 µM
CCOC(=O)c1c(-c2ccc(OC)cc2)c(C#N)c(=S)n(C2OC(COC(C)=O)C(OC(C)=O)C(OC(C)=O)C2OC(C)=O)c1-c1ccccc1 (stereo unspecified) | > 100 µM
CCN(CC)CCC(=O)/C=C/c1ccccc1 | 15.6 µM
CCCC[C@@H]1CCN2C[C@@H](O)[C@@H](O)[C@@H]2[C@H]1O | > 100 µM

These compounds were tested on TK-10 renal (assay: NCI anticancer screen, dose series, 48 h).

Compound | TGI
CN=c1nc2sc3c(c2c(NC(=S)NC)s1)CCCC3 | > 100 µM
CC(C)C(=O)[C@@]1(C)SC[C@H]2CCN=C21 | > 100 µM
COc1cc(C(=O)n2c3ccc(Br)cc3c3nc4ccccc4nc32)cc(OC)c1OC | > 100 µM
CCOC(=O)C1=C(C)N(Cc2ccc(Cl)cc2Cl)C2(O)C=CC(=O)C3C(=O)N(c4ccccc4)C(=O)C132 (stereo unspecified) | 8.09 µM
O=c1cnn(C2OC(C(O)CO)C(O)C2O)c(=O)[nH]1 (stereo unspecified) | > 100 µM
Nc1ccc(Oc2ccc(C34CC5CC6C3CC3CC4C(C5)C6(c4ccc(Oc5ccc(N)cc5)cc4)C3)cc2)cc1 | > 68.6 µM
CNC(C#N)c1ccc(OC)cc1 (stereo unspecified) | > 100 µM
COc1ccccc1/C(=N\OCCC(=O)O)c1cccs1 | > 100 µM
CCOC(=O)c1c(-c2ccc(OC)cc2)c(C#N)c(=S)n(C2OC(COC(C)=O)C(OC(C)=O)C(OC(C)=O)C2OC(C)=O)c1-c1ccccc1 (stereo unspecified) | > 100 µM
CCN(CC)CCC(=O)/C=C/c1ccccc1 | 32.3 µM

Each compound was assayed on BT-549 breast (assay: NCI anticancer screen, dose series, 48 h).

Compound | TGI
CN=c1nc2sc3c(c2c(NC(=S)NC)s1)CCCC3 | > 100 µM
CC(C)C(=O)[C@@]1(C)SC[C@H]2CCN=C21 | > 100 µM
COc1cc(C(=O)n2c3ccc(Br)cc3c3nc4ccccc4nc32)cc(OC)c1OC | > 100 µM
CCOC(=O)C1=C(C)N(Cc2ccc(Cl)cc2Cl)C2(O)C=CC(=O)C3C(=O)N(c4ccccc4)C(=O)C132 (stereo unspecified) | 3.27 µM
O=c1cnn(C2OC(C(O)CO)C(O)C2O)c(=O)[nH]1 (stereo unspecified) | > 100 µM
Nc1ccc(Oc2ccc(C34CC5CC6C3CC3CC4C(C5)C6(c4ccc(Oc5ccc(N)cc5)cc4)C3)cc2)cc1 | > 82.8 µM
CNC(C#N)c1ccc(OC)cc1 (stereo unspecified) | > 100 µM
COc1ccccc1/C(=N\OCCC(=O)O)c1cccs1 | > 100 µM
CCOC(=O)c1c(-c2ccc(OC)cc2)c(C#N)c(=S)n(C2OC(COC(C)=O)C(OC(C)=O)C(OC(C)=O)C2OC(C)=O)c1-c1ccccc1 (stereo unspecified) | > 100 µM
CCN(CC)CCC(=O)/C=C/c1ccccc1 | 21.9 µM
